The values below come from article PMC9573696, “Experimental Examination of Solubility and Lipophilicity as Pharmaceutically Relevant Points of Novel Bioactive Hybrid Compounds” (Molecules, 2022).

In one data set the test system is C. glabrata 61L. In words: In vitro antifungal activity, microbroth dilution (MIC). The class given is cell-based. The note with it: for MIC: Nakaseomyces glabratus, 24 h. As to the method:
(§1) The in vitro antifungal screening results of synthesized compounds was evaluated against three fungal strains: C. parapsilosis ATCC 22019, C. utilis 84, and C. glabrata 61L are summarized in Table 1.
(§2) The in vitro antifungal activity of the target compounds was measured by means of the minimal inhibitory concentrations (MIC) with fluconazole as the control drug. Procedure was carried out by the microbroth dilution method in 96-well plates according to the recommendations of the Clinical and Laboratory Standards Institute. The detailed information was reported previously. The investigated pathogenic species included C. parapsilosis ATCC 22019, C. utilis 84 and C. glabrata 61. The sensitivity was evaluated visually, after the incubation at 35 °C for 24 h and the value was compared with the growth density in the reference culture without the sample. Each test was conducted in triplicate.

For data set [1], the system named is C. parapsilosis ATCC 22019. Described as above. The class given is cell-based. The settings on record: for advantage over fluconazole: MIC ratio; for MIC: Lodderomyces parapsilosis. As to the method:
as §1, §2

The next data set has as its system C. utilis 84. The data set is described as above. The class given is cell-based. As to the method: as §1, §2
The nature of data set [2]: Apparent thermodynamic functions of dissolution (van't Hoff). The class given is physicochemical. The settings on record: Thm = 302.98 K. An excerpt:
The dissolution of the new hybrids was characterized based on apparent thermodynamic parameters obtained from temperature dependences of solubility of the studied compounds in the selected solvents (Figure 6). […] The van’t Hoff enthalpy of dissolution can be expressed as the inclination of a tangent to a solubility curve plotted as lnx vs. (1/T − 1/Thm) by Equation (6): (6) ΔHsolo=−R(∂lnx/∂(1/T−1/Thm))=−R⋅slope where R = 8.314 J⋅K^−1·mol^−1 is the universal gas constant. Thm = 302.98 K denotes the mean harmonic temperature, which was calculated by Equation (7):(7) Thm=n/∑i=1n1/Ti where n represented the number of experimental temperatures. The apparent standard Gibbs energy was evaluated by Equation (8):(8) ΔGsolo=−RThm×intersept
The apparent standard solution entropies were obtained from the well-known relationship:(9) ΔSsolo=ΔHsolo−ΔGsolo/Thm
The calculated apparent thermodynamic solubility functions of dissolution (Gibbs energy, enthalpy, and entropy) at standard temperature 298.15 K for hybrid compounds were collected in Table 4.

Data set [3] in a line: Thermodynamic functions of transfer 1-octanol/buffer pH 7.4. The class given is physicochemical. The settings on record: 298.15 K. As to the method: The temperature variation of the partition coefficient provides enthalpic and entropic contributions to the free energy of transfer. The thermodynamic transfer functions for hybrids I–III in the 1-octanol/buffer pH 7.4 system were calculated by Equations (12)–(16) and are summarized in Table 6. The standard Gibbs energy values for all the compounds are negative. Therefore, the transfer from the aqueous medium to the organic phase within the studied temperature range is thermodynamically favourable and spontaneous. The standard transfer enthalpies of all the studied compounds are positive, which means the process is endothermic. Energy is consumed during the transfer to overcome the hydrophobic effects in water (destruction of the molecule solvate shell structure), destruction of the solvent–solute interactions in the aqueous medium and creation of a cavity in the organic phase where the solute molecules can enter.
The standard change in Gibbs free energy of transfer (∆trG^o) from the buffer to the organic phase was calculated by Equation (14):∆trG^o = −RTlnP*o/b(14)
The standard change entropy of transfer (∆trS^o) is determined as follows:∆trS^o = (∆trH^o − ∆trG^o)/T(15)

Where [4] appears, read: C. glabrata 61L, 35 °C, read-out: MIC.
Where [5] appears, read: ATCC22019, C. parapsilosis ATCC 22019, 35 °C, 24 h, read-out: MIC.
Where [6] appears, read: Williopsis jadinii, C. utilis 84, 35 °C, 24 h, read-out: MIC.

The structures appear in SMILES notation. Values after ≈ are worked out from the molar mass of the structure shown. Like-named read-outs stand apart in the source and are kept apart here.

For the compound `Cc1ccc(-n2c(=S)sc3c(=O)n(CCCN4CCN(CC(O)(Cn5cncn5)c5ccc(F)cc5F)CC4)cnc32)cc1` (stereo not shown) [I, 6-[3-[4-[2-(2,4-difluorophenyl)-2-hydroxy-3-(1H-1,2,4-triazol-1-yl)propyl]-1-piperazinyl]propyl]-2,3-dihydro-3-(4-methylphenyl)-2-thioxo-thiazolo[4,5-d]pyrimidin-7(6H)-one], the “MIC relative to the reference value (fluconazole)” value in the data set with C. glabrata 61L (C. glabrata 61L) is “four times less”. Further, the MIC (as a rule, the smallest concentration in the dilution series that meets the test's criterion for growth inhibition) in the data set on C. glabrata 61L (61L) is 2 µg/mL (≈ 3.13 µM). Further, the advantage over fluconazole in data set [1] (C. parapsilosis ATCC 22019) amounted to 4 fold. In addition, in data set [1] (ATCC22019, 24 h), the MIC stood at 0.5 µg/mL (≈ 0.783 µM). The compound further had an MIC against C. utilis 84 (Williopsis jadinii, 84, 24 h) of 4 µg/mL (≈ 6.26 µM). In data set [2] (1-Octanol), the TΔSsolo is -1.48 kcal/mol, the ΔGsolo was found to be 4.02 ± 0.048 kcal/mol, the ΔHsolo stood at 2.53 ± 0.048 kcal/mol and the ΔSsolo was −20.8 ± 1.1 J·mol^−1·K^−1. Besides, in data set [2] (Buffer pH 2.0), the TΔSsolo was -3.23 kcal/mol, the ΔGsolo amounted to 6.07 ± 0.12 kcal/mol, the ΔHsolo came to 2.84 ± 0.024 kcal/mol and the ΔSsolo is −45.2 ± 2.4 J·mol^−1·K^−1. In addition, in data set [2] (Buffer pH 7.4), the TΔSsolo was -4.54 kcal/mol, the ΔGsolo was found to be 7.7 ± 0.14 kcal/mol, the ΔHsolo was 3.15 ± 0.024 kcal/mol and the ΔSsolo was −63.6 ± 4.1 J·mol^−1·K^−1. In addition, in data set [3], the “T∆trS^o” value was found to be 9.08 ± 0.22 kcal/mol, the “∆trG^o” value is -4.68 ± 0.12 kcal/mol, the “∆trH^o” value is 4.37 ± 0.072 kcal/mol and the “∆trS^o” value worked out at 127.4 ± 4.7 J·mol^−1·K^−1.

Consider `O=c1c2sc(=S)n(-c3ccc(F)cc3)c2ncn1CCCN1CCN(CC(O)(Cn2cncn2)c2ccc(F)cc2F)CC1` (stereo not shown) [II, 6-[3-[4-[2-(2,4-difluorophenyl)-2-hydroxy-3-(1H-1,2,4-triazol-1-yl)propyl]-1-piperazinyl]propyl]-2,3-dihydro-3-(4-fluorophenyl)-2-thioxo-thiazolo[4,5-d]pyrimidin-7(6H)-one], for which the MIC in the data set with C. glabrata 61L (setting [4]) amounted to 4 µg/mL (≈ 6.22 µM). In addition, the advantage over fluconazole in data set [1] (C. parapsilosis ATCC 22019) came out at 20 fold. For the same compound, the MIC in data set [1] (setting [5]) was found to be 0.1 µg/mL (≈ 0.156 µM). Further, the “activity relative to fluconazole” value with C. utilis 84 (C. utilis 84) is recorded as 2 times. Moreover, in the data set on C. utilis 84 (setting [6]), the MIC amounted to 1 µg/mL (≈ 1.56 µM). In data set [2] (1-Octanol), the TΔSsolo was -2.49 kcal/mol, the ΔGsolo turned out to be 4.16 ± 0.072 kcal/mol, the ΔHsolo came out at 1.65 ± 0.024 kcal/mol and the ΔSsolo is on record as −35.1 ± 1.8 J·mol^−1·K^−1. In addition, in data set [2] (Buffer pH 2.0), the TΔSsolo was -1.36 kcal/mol, the ΔGsolo came out at 6.36 ± 0.12 kcal/mol, the ΔHsolo worked out at 5 ± 0.048 kcal/mol and the ΔSsolo is given as −19.1 ± 1.1 J·mol^−1·K^−1. Besides, in data set [2] (Buffer pH 7.4), the TΔSsolo is -5.09 kcal/mol, the ΔGsolo was 7.15 ± 0.14 kcal/mol, the ΔHsolo came to 2.03 ± 0.024 kcal/mol and the ΔSsolo is reported as −71.4 ± 4.2 J·mol^−1·K^−1. Further, in data set [3], the “T∆trS^o” value was determined as 7.62 ± 0.19 kcal/mol, the “∆trG^o” value is -4.57 ± 0.072 kcal/mol, the “∆trH^o” value turned out to be 3.06 ± 0.048 kcal/mol and the “∆trS^o” value is on record as 106.9 ± 2.9 J·mol^−1·K^−1.

On to `O=c1c2sc(=S)n(-c3ccc(Cl)cc3)c2ncn1CCCN1CCN(CC(O)(Cn2cncn2)c2ccc(F)cc2F)CC1` (stereo not shown) [III, 6-[3-[4-[2-(2,4-difluorophenyl)-2-hydroxy-3-(1H-1,2,4-triazol-1-yl)propyl]-1-piperazinyl]propyl]-2,3-dihydro-3-(4-chlorophenyl)-2-thioxo-thiazolo[4,5-d]pyrimidin-7(6H)-one], for which the “MIC relative to the reference value (fluconazole)” value against C. glabrata 61L (C. glabrata 61L) is “four times less”. The MIC in the data set on C. glabrata 61L (setting [4]) worked out at 2 µg/mL (≈ 3.03 µM). Further, the advantage over fluconazole in data set [1] (C. parapsilosis ATCC 22019) is reported as 8 fold. Further, the MIC in data set [1] (setting [5]) was 0.25 µg/mL (≈ 0.379 µM). In addition, the “activity relative to fluconazole” value in the data set on C. utilis 84 (C. utilis 84) is given as “comparable”. Moreover, the MIC in the data set with C. utilis 84 (setting [6]) was found to be 2 µg/mL (≈ 3.03 µM). In data set [2] (1-Octanol), the TΔSsolo is -0.22 kcal/mol, the ΔGsolo is 3.68 ± 0.072 kcal/mol, the ΔHsolo turned out to be 3.47 ± 0.024 kcal/mol and the ΔSsolo is reported as −3.1 ± 0.2 J·mol^−1·K^−1. Further, in data set [2] (Buffer pH 2.0), the TΔSsolo is -4.59 kcal/mol, the ΔGsolo is 6.69 ± 0.096 kcal/mol, the ΔHsolo was 2.1 ± 0.024 kcal/mol and the ΔSsolo is recorded as −64.4 ± 3.8 J·mol^−1·K^−1. In data set [2] (Buffer pH 7.4), the TΔSsolo was -2.87 kcal/mol, the ΔGsolo amounted to 8.05 ± 0.17 kcal/mol, the ΔHsolo was determined as 5.19 ± 0.048 kcal/mol and the ΔSsolo is reported as −40.3 ± 2.3 J·mol^−1·K^−1. In addition, in data set [3], the “T∆trS^o” value is 5.81 ± 0.239 kcal/mol, the “∆trG^o” value is -3.54 ± 0.048 kcal/mol, the “∆trH^o” value turned out to be 2.27 ± 0.024 kcal/mol and the “∆trS^o” value came out at 81.5 ± 1.5 J·mol^−1·K^−1.
